According to US12630506B2, “Direct thrombin inhibitors and methods of use thereof” (Baylor College of Medicine, priority 2020, dated 2026):
pKi: −log10 of the molar value.

Biological target: Thrombin (Homo sapiens, UniProt P00734)
Assay: Thrombin inhibition in vitro (Kiapp)
Type: biochemical
Experimental: The inhibitory potency of Compound 1 on thrombin was tested in vitro.

## CNC(=O)[C@@H]1CN(C(=O)[C@H](Cc2ccccc2CNC(=N)N)NC(=O)N(C)[C@H]2CCOc3ccccc32)C[C@H]1c1ccc(OC)cc1 [Compound 1]
In vitro, FIG. 1, read-out: inhibition constant (thrombin)
  pKi: 9.00
Ratio of inhibition constants vs argatroban
  potency relative to argatroban (thrombin inhibition): about 10 fold
